Article PMC6524873 (TH Open: Companion Journal to Thrombosis and Haemostasis, 2018)

How the values were obtained:
human plasma [1] = experiment: Activated partial thromboplastin time (aPTT) in pooled normal human plasma; assay type: biochemical; conditions: up to 1,100 ng/mL
Protocol: (§1) The ranges of inhibitor concentrations were chosen to encompass the peak and trough plasma levels measured in patients treated with these agents. [26] The PT was performed using HemosIL HS PLUS (Instrumentation Laboratory, Lexington, Massachusetts, United States) on an ACL 7000 coagulometer (Instrumentation Laboratory) according to the manufacturer's instructions. The aPTT was performed using Actin FSL reagent (Siemens, Marburg, Germany) on a BCS XP analyzer (Siemens) according to the manufacturer's instructions. Assays were performed three times in duplicate at 37 ° C. These PT and aPTT reagents were chosen because of their wide availability and their reported sensitivities to rivaroxaban and apixaban. [27]

human plasma [2] = experiment: Prothrombin time (PT) in pooled normal human plasma; assay type: biochemical; conditions: up to 1,100 ng/mL
Protocol: as §1

[3] = test system: thrombin generation in plasma; experiment: Plasma-based calibrated thrombin generation assay; assay type: biochemical, human; conditions: 3 pM tissue factor, concentration-dependent
[4] = biological target: T1, factor Xa incorporated in prothrombinase (Homo sapiens, UniProt P00742); experiment: Rate constants of inhibition of factor Xa in prothrombinase (prothrombin activation, thrombin-DAPA fluorescence, Scheme 2)
T1 sequence (P00742 41-179 limits assumed): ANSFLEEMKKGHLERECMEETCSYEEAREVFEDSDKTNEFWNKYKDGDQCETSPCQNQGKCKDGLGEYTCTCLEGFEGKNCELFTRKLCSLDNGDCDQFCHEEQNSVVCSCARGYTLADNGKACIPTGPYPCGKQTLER
T1 sequence (P00742 235-488 limits assumed): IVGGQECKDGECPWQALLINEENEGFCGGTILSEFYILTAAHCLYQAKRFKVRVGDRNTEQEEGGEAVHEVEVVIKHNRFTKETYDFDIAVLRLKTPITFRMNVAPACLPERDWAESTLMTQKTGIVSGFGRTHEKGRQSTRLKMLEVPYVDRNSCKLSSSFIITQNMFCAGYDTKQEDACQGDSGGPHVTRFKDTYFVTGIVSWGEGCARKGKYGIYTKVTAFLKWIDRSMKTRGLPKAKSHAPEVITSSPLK
T1 sequence (P12259 29-737 partner limits assumed): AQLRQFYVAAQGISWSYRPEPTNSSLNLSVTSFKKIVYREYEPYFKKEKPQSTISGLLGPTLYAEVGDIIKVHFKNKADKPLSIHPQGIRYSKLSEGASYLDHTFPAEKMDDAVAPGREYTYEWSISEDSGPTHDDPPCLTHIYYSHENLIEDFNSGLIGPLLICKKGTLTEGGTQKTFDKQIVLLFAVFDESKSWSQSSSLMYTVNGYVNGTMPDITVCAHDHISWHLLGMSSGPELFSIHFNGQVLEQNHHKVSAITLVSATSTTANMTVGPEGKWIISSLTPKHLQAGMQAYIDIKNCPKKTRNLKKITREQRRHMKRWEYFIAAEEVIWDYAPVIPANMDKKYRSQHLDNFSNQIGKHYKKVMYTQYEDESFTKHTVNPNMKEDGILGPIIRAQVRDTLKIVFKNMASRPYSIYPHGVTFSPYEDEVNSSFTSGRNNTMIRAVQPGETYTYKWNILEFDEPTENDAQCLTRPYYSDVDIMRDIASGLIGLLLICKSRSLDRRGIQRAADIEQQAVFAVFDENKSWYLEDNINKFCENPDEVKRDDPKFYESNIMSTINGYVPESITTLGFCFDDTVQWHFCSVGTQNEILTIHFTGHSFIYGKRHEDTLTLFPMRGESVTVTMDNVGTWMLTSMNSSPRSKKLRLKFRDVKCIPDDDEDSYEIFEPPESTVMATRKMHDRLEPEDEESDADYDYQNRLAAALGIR
T1 sequence (P12259 1574-2224 partner limits assumed): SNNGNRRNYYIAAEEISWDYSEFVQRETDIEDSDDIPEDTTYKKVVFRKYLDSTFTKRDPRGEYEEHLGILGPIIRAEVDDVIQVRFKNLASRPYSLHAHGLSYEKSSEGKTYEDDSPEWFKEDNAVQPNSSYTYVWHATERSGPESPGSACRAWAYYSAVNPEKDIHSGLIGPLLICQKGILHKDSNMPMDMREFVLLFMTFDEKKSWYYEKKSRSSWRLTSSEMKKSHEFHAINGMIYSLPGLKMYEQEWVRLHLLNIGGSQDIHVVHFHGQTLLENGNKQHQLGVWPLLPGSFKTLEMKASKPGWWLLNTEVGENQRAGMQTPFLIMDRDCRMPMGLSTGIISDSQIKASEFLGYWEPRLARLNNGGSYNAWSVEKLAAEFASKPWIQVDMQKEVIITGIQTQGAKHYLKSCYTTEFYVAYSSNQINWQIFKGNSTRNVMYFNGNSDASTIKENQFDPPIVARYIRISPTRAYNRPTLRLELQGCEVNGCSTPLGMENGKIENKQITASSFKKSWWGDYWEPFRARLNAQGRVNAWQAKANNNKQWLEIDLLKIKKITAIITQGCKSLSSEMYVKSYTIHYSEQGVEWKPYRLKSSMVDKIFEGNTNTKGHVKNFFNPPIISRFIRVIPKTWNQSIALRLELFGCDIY

factor Xa [5] = biological target: T2, factor Xa (Homo sapiens, UniProt P00742); experiment: Rate constants of inhibition of factor Xa (Pefafluor Xa, mixed inhibition model, Scheme 1); assay type: biochemical; set-up: factor Xa and thrombin were purchased from Enzyme Research Laboratories; purchased Enzyme Research Laboratories (South Bend, IN)
T2 sequence (P00742 41-179 limits assumed): as the sequence (P00742 41-179 limits assumed) above
T2 sequence (P00742 235-488 limits assumed): as the sequence (P00742 235-488 limits assumed) above

[6] = biological target: T1, factor Xa incorporated in prothrombinase; experiment: Rate constants of inhibition of prothrombinase with rMZ as substrate (meizothrombin-DAPA fluorescence); conditions: 37°C
factor Xa [7] = biological target: T2, factor Xa; experiment: biochemical; conditions: read-out: inhibition of factor Xa chromogenic activity
[8] = biological target: factor Xa incorporated into the prothrombinase complex (Homo sapiens, UniProt P00742); experiment: Factor Xa chromogenic activity in the presence of factor Va, PCPS and prothrombin (hirudin added); conditions: dose-dependent, data not shown
Chain of factor Xa incorporated into the prothrombinase complex (P00742 41-179 limits assumed): as the sequence (P00742 41-179 limits assumed) above
Chain of factor Xa incorporated into the prothrombinase complex (P00742 235-488 limits assumed): as the sequence (P00742 235-488 limits assumed) above
Chain of factor Xa incorporated into the prothrombinase complex (P12259 29-737 partner limits assumed): as the sequence (P12259 29-737 partner limits assumed) above
Chain of factor Xa incorporated into the prothrombinase complex (P12259 1574-2224 partner limits assumed): as the sequence (P12259 1574-2224 partner limits assumed) above

[9] = 37°C, prothrombinase in complex with either form of meizothrombin
[10] = 37°C, prothrombinase in complex with prothrombin
[11] = prothrombin substrate, 37°C, prothrombinase without prothrombin
[12] = 37°C, […] inhibitor, 100 µM Pefafluor Xa, […] factor Xa

`COc1ccc(-n2nc(C(N)=O)c3c2C(=O)N(c2ccc(N4CCCCC4=O)cc2)CC3)cc1` [Apixaban, 1-(4-methoxyphenyl)-7-oxo-6-(4-(2-oxopiperidin-1-yl)phenyl)-4,5,6,7-tetrahydro-1H-pyrazolo[3,4-c]pyridine-3-carboxamide] was tested. Which “effect on the aPTT” value (human plasma [1]) did it give?
Its value is “prolonged the PT and aPTT in a concentration-dependent manner”.

And the “effect on the PT” value (human plasma [2])?
Its value is “prolonged the PT and aPTT in a concentration-dependent manner”.

And the “effect on endogenous thrombin potential (ETP)” value [3]?
The value was “decreased endogenous thrombin potential (ETP)”.

And the “effect on lag time” value [3]?
The value was “prolonged the lag time”.

Which “ji 3, off-rate, E · M + I ⇔ E · M · I or E · M2 + I ⇔ E · M2 · I” value [4, 9] does the source give for `O=C(NC[C@H]1CN(c2ccc(N3CCOCC3=O)cc2)C(=O)O1)c1ccc(Cl)s1` [Rivaroxaban, 5-chloro-N-((5S)-2-oxo-3-[4-(3-oxomorpholin-4-yl)phenyl]-1,3-oxazolidin-5-ylmethyl)thiophene-2-carboxamide] here?
Its value is “(2.95 ± 0.11) × 10 ^−3 s ^−1”.

And the “ki 3, on-rate, E · M + I ⇔ E · M · I or E · M2 + I ⇔ E · M2 · I” value [4, 9]?
Its value is “(2.37 ± 0.22) × 10 ^−3 nM ^−1 ·s ^−1”.

What about the “ji 2, off-rate, E · P + I ⇔ E · P · I” value [4, 10] of the same compound?
Its value is “(1.12 ± 0.15) × 10 ^−2 s ^−1”.

And the “ki 2, on-rate, E · P + I ⇔ E · P · I” value [4, 10]?
The value was “(1.24 ± 0.02) × 10 ^−2 nM ^−1 ·s ^−1”.

What about the “K Pase1, lower than apixaban” value ([4]; free enzyme inhibition, prothrombin substrate) of the same compound?
Its value is 454 fold.

What about the “dissociation rates, faster than apixaban” value ([4]; free factor Xa or factor Xa incorporated into the prothrombinase complex) of the same compound?
The value was “about 3 fold”.

And the “ji 1, off-rate, E + I ⇔ E · I” value [4, 11]?
The value was “(1.31 ± 0.11) × 10 ^−3 s ^−1”.

What about the “ki 1, on-rate, E + I ⇔ E · I” value [4, 11] of the same compound?
Its value is “(5.38 ± 0.35) × 10 ^−3 nM ^−1 ·s ^−1”.

And the “ki 3 on-rate with prothrombinase-meizothrombin complex, slower than apixaban” value ([4]; rivaroxaban slower than apixaban)?
The value was 3 fold.

And the “j 3, off-rate, free factor Xa” value (factor Xa [5]; [12])?
Its value is “(3.21 ± 0.28) × 10 ^−2 s ^−1”.

What about the “j 4, off-rate, factor Xa-substrate complex” value (factor Xa [5]; [12]) of the same compound?
Its value is “(2.01 ± 0.17) × 10 ^−2 s ^−1”.

And the “k 3, on-rate, free factor Xa” value (factor Xa [5]; [12])?
Its value is “(3.77 ± 0.32) × 10 ^−2 nM ^−1 ·s ^−1”.

And the “k 4, on-rate, factor Xa-substrate complex” value (factor Xa [5]; [12])?
Its value is “(1.34 ± 0.04) × 10 ^−2 nM ^−1 ·s ^−1”.

And the “on- and off-rate constants for binding factor Xa alone (k 3 and j 3), on average faster than apixaban” value (factor Xa [5]; average of k3 and j3 ratios)?
Its value is 21 fold.

What about the “binding to the factor Xa-fluorogenic substrate complex (k 4 and j 4), on average faster than apixaban” value (factor Xa [5]; average of k4 and j4 ratios) of the same compound?
Its value is 25 fold.

And the “rate of factor Xa inhibition, faster than apixaban” value (factor Xa [5]; kinetic measurements, p < 0.001)?
The value was “up to 4 fold”.

And the “ji 1, off-rate, E + I ⇔ E · I” value ([6]; free prothrombinase)?
The value was “(2.15 ± 0.18) × 10 ^−3 s ^−1”.

And the “ki 1, on-rate, E + I ⇔ E · I” value ([6]; free prothrombinase)?
The value was “(3.46 ± 0.49) × 10 ^−2 nM ^−1 ·s ^−1”.

And the “ji 2, off-rate, E · rMZ + I ⇔ E · rMZ · I” value ([6]; prothrombinase-rMZ complex)?
The value was “(1.23 ± 0.08) × 10 ^−4 s ^−1”.

What about the “ki 2, on-rate, E · rMZ + I ⇔ E · rMZ · I” value ([6]; prothrombinase-rMZ complex) of the same compound?
The value was “(6.41 ± 0.44) × 10 ^−3 nM ^−1 ·s ^−1”.

And the inhibition at 0.02 µM (factor Xa [7])?
Its inhibition at 0.02 µM is about 85%.

And the “effect on the aPTT” value (human plasma [1])?
The value was “prolonged the PT and aPTT in a concentration-dependent manner”.

And the “effect on the PT” value (human plasma [2])?
The value was “prolonged the PT and aPTT in a concentration-dependent manner”.

What about the “inhibition of factor Xa chromogenic activity in the presence of prothrombinase components” value [8] of the same compound?
The value was “over 95%”.

What about the “effect on endogenous thrombin potential (ETP)” value [3] of the same compound?
The value was “decreased endogenous thrombin potential (ETP)”.

What about the “effect on lag time” value [3] of the same compound?
The value was “prolonged the lag time”.

And the “effect on peak thrombin concentration” value [3]?
Its value is “reduced peak thrombin concentration”.
